Test [1] concerns innate immune response of the skin. The note with it: in synergy with factors originating from the host and microbiome; cited from earlier work.
Test [2] deals with membrane potential of the bacteria.
For test [3], the system named is S. aureus DSM20231. The test is described as follows: Growth of S. aureus DSM20231 in microtiter plates (OD600, aerobic, 24 h). In kind it is cell-based, Staphylococcus aureus. The note with it: for synergistic effect with ISW1-2 on S. aureus growth: with 0.00002% ISW1-2, FIGS. 3 to 10. As for the experimental part: (§1) S. aureus DSM20231 and S. epidermidis ATTC12228 were incubated under aerobic conditions at 37 °C with constant shaking. The overnight cultures were diluted 1:10000 in MHB (Müller Hinton Broth: starch 1.5 g/l; meat infusion 2.0 g/l; peptone from casein (hydrolyzed) 17.5 g/l; pH: 7.4±0.2) and seeded in microtiter plates. […] These experiments were repeated in the presence of a non-inhibitory ISW1-2 concentration (0.00002% ISW1-2). To estimate bacterial growth, the optical density (OD) was measured photometrically at a wavelength of 600 nm (OD600). Increasing values indicate bacterial growth (mean value from three independent experiments).
Staphylococcus aureus DSM20231 was incubated without ISW1-2 (FIGS. 3, 5, 7, 9) and with a non-inhibitory concentration of 0.00002% ISW1-2 (FIGS. 4, 6, 8, 10), wherein different concentrations of licochalcone Extract; licochalcone A; licochalcone C and licochalcone E (0 μg/ml=control; 1 μg/ml; 2 μg/ml) were present. FIGS. 3 to 10 show the bacterial growth over 24 hours under the different conditions (mean values from three independent experiments).
(§2) Bacterial growth is measured by the increase in turbidity in the medium (OD600), i.e. an increase in OD over time indicates bacterial growth.
FIGS. 7 and 8 show the studies with ISW1-2 and licochalcone C. Four different amounts of licochalcone C were used (0%, control; 1 μg/ml; 2 μg/ml and 4 μg/ml), alone (FIG. 7) and with 0.00002% ISW1-2 (FIG. 8).
FIGS. 9 and 10 show the studies with ISW1-2 and licochalcone E. Three different amounts of licochalcone E were used (0%, control; 1 μg/ml; 2 μg/ml), alone (FIG. 9) and with 0.00002% ISW1-2 (FIG. 10).

The subject of test [4] is Staphylococcus aureus. The test is described as follows: Minimum inhibitory concentration / antimicrobial activity against Staphylococcus aureus in vitro. The test is classed as cell-based. The note with it: for minimum inhibitory concentration (MIC): Staphylococcus aureus.
In test [5] the test system is C. acnes DSM1897. The experiment in a line: Growth of C. acnes DSM1897 in microtiter plates (OD600, anaerobic, 5 days). In kind it is cell-based, Cutibacterium acnes (Propionibacterium acnes). As for the experimental part:
The effect of the preparations according to the invention on the growth of C. acnes, S. aureus and S. epidermidis was investigated in in vitro studies.
C. acnes DSM1897 was incubated under anaerobic conditions at 37 °C. The overnight culture was diluted 1:1000 in Caso medium (casein peptone 17 g/l; soybean meal peptone 3 g/l; sodium chloride 5 g/l; glucose 2.5 g/l; dipotassium hydrogen phosphate 2.5 g/l; pH 7.3±0.2) and seeded in microtiter plates. Different concentrations of the plant extract Glycyrrhiza inflata and licochalcone A (1 μg/ml, 2 μg/ml) were added, mixed and incubated anaerobically at 37 °C for 5 days. […] The optical density (OD) was measured photometrically at a wavelength of 600 nm (OD600) to estimate the growth of the bacteria. […]
Unless otherwise stated, the quantities refer to the weight of the compound per volume of medium, e.g. 1 μg/ml means 1 μg licochalcone A in 1 ml medium. The percentage quantities of ISW1-2 refer to the weight of ISW1-2 in relation to the total weight of the respective test preparation.
C. acnes 1897 was incubated without ISW1-2 (FIG. 1 shaded) and with a non-inhibitory concentration of 0.00001% ISW1-2 (FIG. 1 black), wherein different concentrations of licochalcone A Extract (0 μg/ml=control; 1 μg/ml; 2 μg/ml) were added. Bacterial growth or inhibition is measured by the increase/reduction of turbidity in the medium (OD600). […]

Test [6] relates to S. epidermidis ATTC12228. The test is described as follows: Growth of S. epidermidis 12228 in microtiter plates (OD600, aerobic, 24 h). The note with it: for effect on growth of S. epidermidis (OD600): 1 μg/ml, 2 μg/ml, without ISW1-2, 24 h, FIGS. 11, 13, 15, 17. The test is classed as cell-based, Staphylococcus epidermidis. As for the experimental part:
as §1
In further comparative studies, the influence of the combination of compounds according to the invention was also determined on skin commensal germs, such as S. epidermidis (FIGS. 11 to 18).
For this purpose, Staphylococcus epidermidis 12228 was incubated without ISW1-2 (FIGS. 11, 13, 15, 17) and with a non-inhibitory concentration of 0.00002% ISW1-2 (FIGS. 12, 14, 16, 18), wherein different concentrations of licochalcone extract; licochalcone A; licochalcone C and licochalcone E (0 μg/ml=control; 1 μg/ml; 2 μg/ml) were present. The bacterial growth over 24 h under the different conditions is shown (mean values from three independent experiments).
as §2

SMILES strings stand for the structures. In brackets after ≈: the same amount, converted by molar mass.

With `CC(C)C[C@H]1NC(=O)[C@H](Cc2c[nH]c3ccccc23)NC(=O)[C@@H](C(C)C)NC(=O)[C@H]2NC(SC2(C)C)[C@H](C(C)C)NC(=O)[C@@H](Cc2c[nH]c3ccccc23)NC(=O)[C@H](C(C)C)NC1=O` [ISW1-2, cyclo [N-DVal-LTrp-DLeu-LVal-DTrp-LMe2Thz(LVal)-C]], the “effect on innate immune response of the skin” value in test [1] was “supports the innate immune response of the skin”. In addition, the mechanism of action result in test [2] (antibacterial effect) was “based on proton translocation while maintaining membrane integrity”. For the same compound, the “correlation of antibacterial effect with membrane potential drop” value in test [2] (bacteria) is given as “correlates strongly with the drop of the membrane potential of the bacteria”. For the same compound, the “growth inhibition of S. aureus (OD600)” value in test [3] (0.00002% ISW1-2 alone, 37 °C, 24 h) is reported as “non-inhibitory”. In test [4], the “sensitivity of skin pathogens such as Staphylococcus aureus” value is reported as “particularly sensitive”. Also, the “minimum inhibitory concentration (MIC)” value in test [4] was determined as 3.1 µg/mL (≈ 3.45 µM); in test [4] (3.1 μg/ml expressed in %), 0.00031%. Also, the “growth inhibition of C. acnes (OD600)” value in test [5] (0.00001% ISW1-2 alone, anaerobic, 37 °C, 5 days) is reported as “non-inhibitory”. For the same compound, in test [6] (0.00002% ISW1-2 alone, 24 h), the “growth inhibition of S. epidermidis (OD600)” value is listed as “non-inhibitory”.
In the case of `C=CC(C)(C)c1cc(/C=C/C(=O)c2ccc(O)cc2)c(OC)cc1O` [licochalcone A], the “growth inhibition of C. acnes (OD600)” value in test [5] (pure extract or pure licochalcone A without ISW1-2, FIGS. 1 and 2) is “only a minor inhibitory effect”. The “effect on growth of S. epidermidis (OD600)” value (from here on “effect on growth”) in test [6] is “No influence on the growth of S. epidermidis was observed”.
With `COc1c(/C=C/C(=O)c2ccc(O)cc2)ccc(O)c1CC=C(C)C` [licochalcone C], the “synergistic effect with ISW1-2 on S. aureus growth” value in test [3] is “somewhat less synergistically with ISW1-2 than licochalcone A”. Also, the “effect on growth” value in test [6] is reported as “No influence on the growth of S. epidermidis was observed”.
As for `C=C(C)[C@@H](C)c1cc(/C=C/C(=O)c2ccc(O)cc2)c(OC)cc1O` [licochalcone E], the “synergistic effect with ISW1-2 on S. aureus growth” value in test [3] is recorded as “better synergistic effect with ISW1-2, similar to licochalcone A”. Besides, the “effect on growth” value in test [6] is “No influence on the growth of S. epidermidis was observed”.

Source of the values: patent US20260373229A1, “TOPICALLY APPLICABLE PREPARATION FOR IMPROVING SKIN CONDITION” (priority 2022, published 2026).
